Data published in patent US8071810B2, “C5a receptor antagonists” (Jerini AG, priority 2005, dated 2011).

Each molecule was assayed against T1, human C5a receptor (CD88) (Homo sapiens, UniProt P21730) (assay: C5a induced enzyme (glucosaminidase) release assay in RBL cells expressing the human C5a receptor (Example 28)). Conditions: RBL cells with human C5aR; read-out: IC50 for the inhibition of C5a induced enzyme release.
T1 construct: expressed in transfected cells; host or cells: rat basophilic leukemia (RBL) cells, stably transfected
T1 sequence (P21730 1-350): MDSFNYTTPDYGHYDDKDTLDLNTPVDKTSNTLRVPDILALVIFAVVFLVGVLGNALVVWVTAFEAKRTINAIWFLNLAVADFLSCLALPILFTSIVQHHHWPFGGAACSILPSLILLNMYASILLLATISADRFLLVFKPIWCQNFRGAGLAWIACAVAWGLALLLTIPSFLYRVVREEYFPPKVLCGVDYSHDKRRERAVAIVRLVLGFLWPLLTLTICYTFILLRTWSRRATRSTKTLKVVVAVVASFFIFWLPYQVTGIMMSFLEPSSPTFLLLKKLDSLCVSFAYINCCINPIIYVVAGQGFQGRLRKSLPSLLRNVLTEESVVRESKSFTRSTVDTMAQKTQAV
Assay type: cell-based
Experimental: Basophile leukemia cells from rats (RBL), which express the human C5a receptor (CD88), are cultivated in DMEM with 10% fetal calf serum, 100 U/ml penicillin, 100 μg/ml streptomycin and 2 mM glutamin (all constituents are from Biochrome, Berlin) at 37° C. and with 10% CO2 until a confluent layer is obtained. All following details refer to a tissue culture flask with 75 cm^2 surface. The used up medium is removed. The cells are washed with 10 ml PBS (Dulbecco's PBS, Biochrome) and then covered with 3 ml cell dissociation solution (CDS, Sigma). The cells are incubated for 1 minute at room temperature. Then the CDS is removed and the cells are incubated for further 10-15 minutes at 37° C. to detach the cells completely from the flask. 20 μl solution of the compound to be testet are used in the assay. […] The dilution series are prepared in ⅓ or ½ steps. […] The cells are counted and centrifuged (200 g, 10 min). The cell pellet is taken up with pre-heated HAG-CM, and the cell density is adjusted to 2×10^6 Zellen/ml. The cells are incubated for 5 minutes at 37° C. 2.7 μl of a cytochalasin B solution (1000 μg/ml in DMSO, Sigma) are added per ml cell suspension. The Zellen are incubated for another 3 min at 37° C. Then, 75 μl of the cell suspension are added to the 20 μl solution containing the compounds to be tested. […] The cells are again incubated for 10 minutes at 37° C. […] After this the plates are put on ice and centrifuged for 3 minutes at 1200×g and 4° C. […] The plate is incubated for 1 hour at 37° C. […] The IC50 value is determined by solving the four parameter equation y=((A−D)/(1+(x/C)^B))+D.

SMILES | IC50
CCc1c(N)cc(Cl)c(CC)c1NC(=O)N(c1ccc(C(C)C)cc1)[C@@H](C)c1ccc(C)cc1 [compound 73, (S)-3-(3-amino-5-chloro-2,6-diethyl-phenyl)-1-(4-isopropyl-phenyl)-1-(1-p-tolyl-ethyl)-urea] | 0.032 µM
CCc1c(N)cc(Cl)c(CC)c1NC(=O)N(c1ccc(C(C)C)cc1)[C@@H](C)c1ccc(F)cc1 [compound 81, (S)-3-(3-amino-5-chloro-2,6-diethyl-phenyl)-1-[1-(4-fluor-phenyl)-ethyl]-1-(4-isopropyl-phenyl)-urea] | 0.038 µM

Same assay, conditions: inhibition of C5a induced enzyme release, RBL cells with human C5aR; read-out: Activity-range (antagonistic activity, IC50 enzyme release)

SMILES | IC50
CCc1ccc(N)c(CC)c1NC(=O)N(c1ccc(C(C)C)cc1)[C@@H](C)c1ccc(OC)cc1 [compound 71, (S)-3-(3-amino-2,6-diethyl-phenyl)-1-(4-isopropyl-phenyl)-1-[1-(4-methoxy-phenyl)-ethyl]-urea] | 0.06 to 0.2 µM
CCc1c(N)cc(Cl)c(CC)c1NC(=O)N(Cc1ccc(Cl)cc1)c1ccc(C(C)C)cc1 [compound 72, 3-(3-amino-5-chloro-2,6-diethyl-phenyl)-1-(4-chlor-benzyl)-1-(4-isopropyl-phenyl)-urea] | 0.06 to 0.2 µM
CCc1c(N)cc(Cl)c(CC)c1NC(=O)N(Cc1cccnc1)c1ccc(C(C)C)cc1 [compound 74, 3-(3-amino-5-chloro-2,6-diethyl-phenyl)-1-(4-isopropyl-phenyl)-1-pyridin-3-ylmethyl-urea] | 0.2 to 5 µM
CCc1c(N)cc(Cl)c(CC)c1NC(=O)N(Cc1cnc(C)cn1)c1ccc(C(C)C)cc1 [compound 75, 3-(3-amino-5-chloro-2,6-diethyl-phenyl)-1-(4-isopropyl-phenyl)-1-(5-methyl-pyrazin-2-ylmethyl)-urea] | 0.06 to 0.2 µM
CCc1c(N)cc(Cl)c(CC)c1NC(=O)N(Cc1ccc(C)nc1)c1ccc(C(C)C)cc1 [compound 76, 3-(3-amino-5-chloro-2,6-diethyl-phenyl)-1-(4-isopropyl-phenyl)-1-(6-methyl-pyridin-3-ylmethyl)-urea] | 0.06 to 0.2 µM
CCc1c(N)cc(Cl)c(CC)c1NC(=O)N(Cc1cnc(OC)nc1OC)c1ccc(C(C)C)cc1 [compound 77, 3-(3-amino-5-chloro-2,6-diethyl-phenyl)-1-(2,4-dimethoxy-pyrimidin-5-ylmethyl)-1-(4-isopropyl-phenyl)-urea] | 0.2 to 5 µM
CCc1c(N)cc(Cl)c(CC)c1NC(=O)N(c1ccc(C(C)C)cc1)[C@@H](C)c1ccc(Cl)cc1 [compound 78, (S)-3-(3-amino-5-chloro-2,6-diethyl-phenyl)-1-[1-(4-chlor-phenyl)-ethyl]-1-(4-isopropyl-phenyl)-urea] | < 0.06 µM
Cc1ccc([C@H](C)N(C(=O)Nc2c(C)c(N)cc(Cl)c2C)c2ccc(C(C)C)cc2)cc1 [compound 79, (S)-3-(3-amino-5-chloro-2,6-dimethyl-phenyl)-1-(4-isopropyl-phenyl)-1-(1-p-tolyl-ethyl)-urea] | 0.2 to 5 µM
CCc1ccc(N(C(=O)Nc2c(CC)c(N)cc(Cl)c2CC)[C@@H](C)c2ccc(F)cc2)cc1 [compound 82, (S)-3-(3-amino-5-chloro-2,6-diethyl-phenyl)-1-(4-ethyl-phenyl)-1-[1-(4-fluoro-phenyl)-ethyl]-urea] | 0.06 to 0.2 µM
CCc1c(N)cc(Cl)c(CC)c1NC(=O)N(c1ccc(SC)cc1)[C@@H](C)c1ccc(Cl)cc1 [compound 83, (S)-3-(3-amino-5-chloro-2,6-diethyl-phenyl)-1-[1-(4-chloro-phenyl)-ethyl]-1-(4-methylsulfanyl-phenyl)-urea] | 0.06 to 0.2 µM
CCc1c(N)cc(Cl)c(CC)c1NC(=O)N(c1ccc(C(C)C)cc1)C1CCc2ccccc21 (stereo not drawn) [compound 84, 3-(3-amino-5-chloro-2,6-diethyl-phenyl)-1-indane-1-yl-1-(4-isopropyl-phenyl)-urea] | 0.2 to 5 µM
C#Cc1ccc(N(Cc2ccc(OC)cc2)C(=O)Nc2c(CC)c(N)cc(Cl)c2CC)cc1 [compound 85, 3-(3-amino-5-chloro-2,6-diethyl-phenyl)-1-(4-ethynyl-phenyl)-1-(4-methoxy-benzyl)-urea] | 0.2 to 5 µM
CCc1c(N)cc(Cl)c(CC)c1NC(=O)N(c1ccc(Cl)cc1)[C@@H](C)c1ccc(Cl)cc1 [compound 86, (S)-3-(3-amino-5-chloro-2,6-diethyl-phenyl)-1-(4-chlor-phenyl)-1-[1-(4-chloro-phenyl)-ethyl]-urea] | 0.2 to 5 µM
CCc1c(N)cc(Cl)c(CC)c1NC(=O)N(Cc1ccc(C(F)(F)F)nc1)c1ccc(C(C)C)cc1 [compound 87, 3-(3-amino-5-chloro-2,6-diethyl-phenyl)-1-(4-isopropyl-phenyl)-1-(6-trifluoromethyl-pyridin-3-ylmethyl)-urea] | 0.2 to 5 µM
CCc1c(N)cc(Cl)c(CC)c1NC(=O)N(c1ccc(C(C)C)cc1)C1CCOc2ccccc21 (stereo not drawn) [compound 89, 3-(3-amino-5-chloro-2,6-diethyl-phenyl)-1-chroman-4-yl-1-(4-isopropyl-phenyl)-urea] | 0.2 to 5 µM
CCc1ccc(N)c(CC)c1NC(=O)N(c1ccc(C(C)C)cc1)C1CCc2ccccc21 (stereo not drawn) [compound 90, 3-(3-amino-2,6-diethyl-phenyl)-1-indane-1-yl-1-(4-isopropyl-phenyl)-urea] | 0.2 to 5 µM
CCc1ccc(N(Cc2cnn(CC)c2)C(=O)Nc2c(CC)c(N)cc(Cl)c2CC)cc1 [compound 91, 3-(3-amino-5-chloro-2,6-diethyl-phenyl)-1-(4-ethyl-phenyl)-1-(1-ethyl-1H-pyrazol-4-ylmethyl)-urea] | 0.2 to 5 µM
CCc1c(N)cc(Cl)c(CC)c1NC(=O)N(c1ccc(OC)cc1)[C@@H](C)c1ccc(Cl)cc1 [compound 92, (S)-3-(3-amino-5-chloro-2,6-diethyl-phenyl)-1-[1-(4-chloro-phenyl)-ethyl]-1-(4-methoxy-phenyl)-urea] | 0.06 to 0.2 µM
CCc1c(N)cc(Cl)c(CC)c1NC(=O)N(Cc1ccc(Cl)cc1)c1ccc(SC(F)(F)F)cc1 [compound 93, 3-(3-amino-5-chloro-2,6-diethyl-phenyl)-1-(4-chloro-benzyl)-1-(4-trifluoromethylsulfanyl-phenyl)-urea] | 0.2 to 5 µM
CCc1c(N)cc(Cl)c(CC)c1NC(=O)N(c1ccc(OC)c(F)c1)[C@@H](C)c1ccc(Cl)cc1 [compound 94, (S)-3-(3-amino-5-chloro-2,6-diethyl-phenyl)-1-[1-(4-chloro-phenyl)-ethyl]-1-(3-fluoro-4-methoxy-phenyl)-urea] | < 0.06 µM
CCc1c(N)cc(Cl)c(CC)c1NC(=O)N(c1ccc([S+](C)[O-])cc1)[C@@H](C)c1ccc(Cl)cc1 (stereo partly drawn) [compound 95, (S)-3-(3-amino-5-chloro-2,6-diethyl-phenyl)-1-[1-(4-chloro-phenyl)-ethyl]-1-(4-methanesulfinyl-phenyl)-urea] | 0.2 to 5 µM
CCc1ccc(N(Cc2ccc(F)cc2)C(=O)Nc2c(CC)c(N)cc(Cl)c2CC)cc1 [compound 96, 3-(3-amino-5-chloro-2,6-diethyl-phenyl)-1-(4-ethyl-phenyl)-1-(4-fluoro-benzyl)-urea] | 0.06 to 0.2 µM
CCc1ccc(N(Cc2ccc(Br)cc2)C(=O)Nc2c(CC)c(N)cc(Cl)c2CC)cc1 [compound 99, 3-(3-amino-5-chloro-2,6-diethyl-phenyl)-1-(4-bromo-benzyl)-1-(4-ethyl-phenyl)-urea] | < 0.06 µM
CCc1c(N)cc(Cl)c(CC)c1NC(=O)N(c1ccc(C(C)C)cc1)C1CCSc2ccccc21 (stereo not drawn) [compound 101, 3-(3-amino-5-chloro-2,6-diethyl-phenyl)-1-(4-isopropyl-phenyl)-1-thiochroman-4-yl-urea] | 0.2 to 5 µM
CCc1ccc(N(C(=O)Nc2c(CC)c(N)cc(Cl)c2CC)C2CCc3cc(Cl)ccc32)cc1 (stereo not drawn) [compound 104, 3-(3-amino-5-chloro-2,6-diethyl-phenyl)-1-(5-chloro-indane-1-yl)-1-(4-ethyl-phenyl)-urea] | 0.06 to 0.2 µM
CCc1c(N)cc(Cl)c(CC)c1NC(=O)N(Cc1ccc(Cl)cn1)c1ccc(C(C)C)cc1 [compound 105, 3-(3-amino-5-chloro-2,6-diethyl-phenyl)-1-(5-chloro-pyridin-2-ylmethyl)-1-(4-isopropyl-phenyl)-urea] | 0.2 to 5 µM
CCc1ccc(N(Cc2ccc(C)nc2)C(=O)Nc2c(CC)ccc(N)c2CC)cc1 [compound 107, 3-(3-amino-2,6-diethyl-phenyl)-1-(4-ethyl-phenyl)-1-(6-methyl-pyridin-3-ylmethyl)-urea] | 0.2 to 5 µM
CCc1c(N)cc(Cl)c(CC)c1NC(=O)N(Cc1ccc(Cl)cc1)c1cccc2ccccc12 [compound 108, 3-(3-amino-5-chloro-2,6-diethyl-phenyl)-1-(4-chloro-benzyl)-1-naphthaline-1-yl-urea] | 0.2 to 5 µM
